Values quoted from earlier work in patent US20040228830A1 (Collegium Pharmaceutical, Inc., priority 2003, published 2004).

What was measured:
[1] = 75-100 mg/day twice daily for 8 weeks, elderly patients with depression
[2] = intravenous, 10 patients
[3] = metabolism in the liver
[4] = human, in vivo
uptake of dopamine = uptake of dopamine (Homo sapiens, UniProt Q01959)
[5] = 200 mg/day
[6] = after one week of dose escalation
[7] = test system: beta adrenoceptors in rat cortex; details: after chronic administration

Sequence of uptake of dopamine (Q01959 whole entry): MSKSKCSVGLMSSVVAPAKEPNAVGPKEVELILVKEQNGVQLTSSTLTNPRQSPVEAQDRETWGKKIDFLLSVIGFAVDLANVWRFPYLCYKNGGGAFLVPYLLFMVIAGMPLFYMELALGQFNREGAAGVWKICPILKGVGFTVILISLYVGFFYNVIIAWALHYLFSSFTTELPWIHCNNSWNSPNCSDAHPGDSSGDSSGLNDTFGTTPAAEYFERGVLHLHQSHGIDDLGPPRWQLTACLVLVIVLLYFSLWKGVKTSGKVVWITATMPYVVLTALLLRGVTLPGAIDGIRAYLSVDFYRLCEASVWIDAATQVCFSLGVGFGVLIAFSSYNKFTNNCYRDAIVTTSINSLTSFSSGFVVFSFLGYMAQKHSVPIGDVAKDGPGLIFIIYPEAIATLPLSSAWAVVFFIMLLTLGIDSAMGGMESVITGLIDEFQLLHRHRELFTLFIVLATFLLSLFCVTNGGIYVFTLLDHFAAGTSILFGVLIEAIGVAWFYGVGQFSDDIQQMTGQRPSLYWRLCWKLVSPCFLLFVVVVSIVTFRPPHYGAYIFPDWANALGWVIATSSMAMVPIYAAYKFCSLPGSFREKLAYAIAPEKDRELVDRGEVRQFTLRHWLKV

CCN(CC)C(=O)C1(c2ccccc2)CC1CN (stereo not shown) [milnacipran, Milnacipran]
only adverse event reported more frequently for milnacipran recipients than for imipramine recipients [1]: nausea | patients reporting transient nausea [2]: five | number of chemically identified metabolites [3]: ten | toxicity in humans [4]: non-toxic | most common dose-related side effect reported by patients (four weeks dose escalation): nausea | pain improvement (twice-a-day administration of immediate release formulation, fibromyalgia): statistically superior to that of placebo treatment | effect on the uptake of dopamine (uptake of dopamine): does not affect | antidepressant efficacy versus lower doses [5]: superior to the lower doses | most commonly reported reason for discontinuation of treatment because of adverse effects [6]: nausea and vomiting | effect on the number of beta adrenoceptors in rat cortex [7]: does not affect
